The subject of data set [1] is L. major amasitigote 5-ASKH substrain. Nature of the data set: In vitro activity against intramacrophage amastigotes, 5-ASKH. The class given is cell-based. To be noted: Leishmania major. The method, then: (§1) Briefly, female BALB/c mice (6 to 8 weeks old) received 1 mL sterile of 3% sodium thioglycolate by intraperitoneal route (i.p.) and were euthanized after 4 days. The intraperitoneal lavage was collected from the peritoneal cavity of mice using sterile PBS and cells were counted in a hemocytometer. Peritoneal adherent cells (macrophages) were plated at a concentration of 2 x 10^5 cells per well in 24-well culture plates containing glass coverslips. Subsequently, L. major promastigotes (harvested after the third passage) were added at a concentration of 2 x 10^6 parasites per well, aiming to infect the macrophages. […] After 24 hours in an incubator at 37 °C and 5% CO2, the coverslips were washed with PBS and stained with Giemsa-May Grünwald. The number of amastigotes in 100 macrophages was determined by counting using optical microscope (100x objective). Furthermore, the cell culture supernatant was also collected for nitrite measurement using the Griess reaction, an indirect way of determining the concentration of nitric oxide in the supernatant of infected macrophages from the experimental groups. The results obtained were expressed as the mean ± S.E.M. of the number of amastigotes or nitrite concentration from duplicate cultures of representative assays, with the data analyzed by ANOVA and Dunnett hoc tests, considering a significance level of p < 0.05. In addition, the linear regression analysis from the Kc values at employed concentrations was used to determine the IC50.

The nature of data set [2]: PAMPA-GIT permeability. The text has this: The parallel artificial membrane permeability assay uses 96-well plate in a “sandwich” type system, where one plate overlaps the other (PAMPA). […] The lipid mixture that impregnates the PVDF filter has a different constitution for the permeability tests for the blood-brain barrier (Brain lipid from pig extract in dodecane) and gastro-intestinal tract (L-α soy phosphatidylcholine in dodecane). In the PAMPA BBB and TGI assays, the optical density values obtained in the reading at each selected wavelength, for each of the compounds were analyzed in comparison with the values of several controls. In the case of the BBB, these values were used to elaborate an equation and determine the permeability coefficient (Pe), using a previously elaborated spreadsheet, and, for the TGI, these values were used to determine the absorbed fraction (Fa%), both using the Excel® program.
For orientation: The PAMPA barrier holds no transporters, so it reflects passive diffusion.

The test system of data set [3] is L. major promastigote 5-ASKH substrain. Nature of the data set: In vitro activity against promastigotes, 5-ASKH. The class given is cell-based, Leishmania major. The method, then:
(§2) L. major promastigotes LV39 (MRHO/SU/59/P) were obtained from João […] Preto Medical School- USP. L. major IOC/[…] promastigotes (MHOM/SU/1973/5-ASKH) were obtained from Leishmania collection of the Oswaldo Cruz Institute-Fiocruz. L. major promastigotes LV39 (MRHO/SU/59/P) and L. major IOC/[…] (MHOM/SU/1973/5-ASKH) were grown in a Schneider's medium (Sigma-Aldrich, St. […] The determination of the leishmanicidal activity of LASSBio-1491 against L. major promastigotes was carried out according to the methodology described by […] and colleagues (1996). […] After 48h of incubation in a Biochemical Oxygen Demand (B.O.D.) incubator, the promastigotes were counted using a hemocytometer. The results obtained were expressed as the mean ± S.E.M. of the number of promastigotes from triplicate cultures of representative assays, with the data analyzed by ANOVA and Dunnett hoc tests, considering a significance level of p < 0.05.

For data set [4], the system named is L. major promastigote LV39 substrain. The data set is described as follows: In vitro activity against promastigotes, LV39. To be noted: Leishmania major. Format: cell-based. The method, then: as §2
Data set [5] deals with peritoneal macrophages infected with L. major LV39. Nature of the data set: Nitrite measurement (Griess reaction) in infected macrophages. Format: cell-based, BALB/c mice. The following applies: BALB/c macrophages infected with L. major LV39. How it is done: as §1, with “In addition, the linear regression analysis from the Kc values at employed concentrations was used to determine the IC50.” left out
In general terms: Nitrite, measured by Griess reagent, commonly stands in for NO production.

Data set [6] can be described thus: Microsomal metabolism. The class given is in vitro ADME. The following applies: rat liver microsomes. The method, then: The study of the microsomal metabolism of the compounds was evaluated by placing 1 mg/ml rat liver microsome in a microcentrifuge tube, in the presence of a NADPH generator system (1 mM NADP^+, 1.5 mM MgCl2, 3.5 mM glucose-6-phosphate and 0.5 U/mL glucose-6-phosphate dehydrogenase) and phosphate buffer pH 7.4 in sufficient quantity for 250 μL. After 15 minutes of pre-incubation at 37°C in a water bath, the enzymatic reactions were started by adding 2 μL of a stock solution 1 mM from one of the prototypes (500 μL 20% DMSO 80% CH3CN), so that a final concentration of 5 μM was reached (0.2% DMSO, 0.8% acetonitrile).
Then, the samples were again incubated at 37°C under agitation for predetermined and fixed periods (0, 15, 30, 45 and 60 minutes). At the end of the incubation period 500 μL of cold methanol and 500 μL of cold acetonitrile containing 5 μM of methyl 1,1’biphenyl-4-carboxylate 5 μM (internal standard) were added to the wells to stop the reaction and the samples were homogenized and kept in an ice bath to accelerate protein precipitation. The mixture was centrifuged at 24500 x g for 15 minutes at 4°C (Universal centrifuge 320R Hettich®). Finally, the supernatant (1 mL) was filtrated and placed in vials to be analyzed by HPLC-PDA, Shimadzu—LC20AD, Kromasil C-18 column (4.6 mm x 250 mm, 5 μm), SPD M20A diode array detector, flow 1 mL/min, mobile phase acetonitrile: water 1:1 (v/v) for LASSBio-1491 and acetonitrile: water 60:40 (v/v) for LASSBio-1736, 20 minutes at 254 nm wavelength. Then, the microsomal half-life and clearance were calculated.
(In general: Microsomes from liver hold many membrane-bound enzymes, among them those of drug oxidation.)

In data set [7] the test system is L. major LV39. The data set is described as follows: In vivo activity against Leishmania major LV39 substrain. Also noted: species or system BALB/c mice. The method, then:
Thus, 6-week-old female BALB/c mice weighing approximately 20 g were used. […] Briefly, ketamine (80mg/kg) and xylazine (8 mg/kg) were simultaneously used to anesthetize the mice by intraperitoneal injection. The promastigotes of L. major LV39 substrain in the stationary phase, harvested after the third passage (obtained from parasites frozen), were inoculated subcutaneously at a concentration of 1x 10^5 parasites in the right ear of mice. […] The size of the lesions was measured using a pachymeter. Thiopental (150 mg/kg, i.p.) was used to euthanize the mice and the quantitative limiting-dilution assay was used to determine the parasite burden of infected ears and draining lymph nodes. The results obtained from experiments were expressed as the mean ± S.E.M. with the data analyzed (size of the lesions or parasite burden) by ANOVA and Dunnett hoc tests, considering a significance level of p < 0.05.

Setting [8] is: LASSBio-1491 10 μmol/Kg/day, glucantime 30 μmol/Kg/day x 28 days, i.p.

Broadly, the IC50 is the midpoint of a concentration-inhibition curve. A lower IC50 goes with higher potency. In general, Papp refers to the rate of passage across a membrane or cell layer, normalised by area and donor concentration. Read a low Papp as poor permeation. One may read the half-life as the time needed for the level to fall by half in the phase considered. Low readings indicate rapid decline, high ones slow decline. As a reminder, the microsomal CLint is a measure of how fast metabolising enzymes remove a compound, apart from limits set by blood flow. Low values mean greater metabolic stability, high ones faster metabolism. `O=C(N/N=C/c1ccc([N+](=O)[O-])o1)NNC(=O)c1ccc(Cl)cc1` [LASSBio-1491]: the IC50 amounted to 7.3 ± 0.6 µM in data set [1] (Macrophage, amastigote 5-ASKH in macrophages, 24 h); 7.5 ± 0.3 µM in data set [3] (Leishmania major, 48 h); 7.7 ± 0.1 µM in data set [4] (promastigote LV39, 48 h). Moreover, the Emax stood at 67.5 ± 4.8% in data set [1] (amastigote 5-ASKH, read-out: Maximum effect (% ± S.E.M.)); 68.4 ± 0.1% in data set [3] (Leishmania major, read-out: Maximum effect (% ± S.E.M.)); 68.3 ± 0.2% in data set [4] (promastigote LV39, read-out: Maximum effect (% ± S.E.M.)). For the same compound, the Classification result in data set [2] (GIT-PAMPA) is “High (high intestinal permeability (70–100%))”. In data set [2] (GIT-PAMPA, absorbed fraction), this compound had a Fa experimental of 78.8%. The compound also came in with a Papp in data set [2] (PAMPA) of 4.08 ×10⁻⁶ cm/s. In data set [3], the “times less potent than pentamidine” value is “about 10 times”. Moreover, the “NO production (nitrite)” value in data set [5] is listed as “increased NO production”. This compound showed a half-life at 5 μM in data set [6] (pH 7.4, with co-factor) of 2.68 h. Further, the microsomal CLint at 5 μM in data set [6] (pH 7.4, with co-factor, Volume x (0,693/t1/2)) is 1.07 µL/min/mg. Also, the “Metabolism rate with co-factor” value in data set [6] (with NADPH regenerating system) is 25.46%. The “Elimination rate constant (k)” value in data set [6] (with co-factor) was 0.0043. Also, the Clapp in data set [6] (with co-factor, scaled to liver and rat weight) is 0.166 mL/min/kg. The lesion size result in data set [7] (setting [8]) was “reduced lesion size only between days 7 and 17”. Besides, the “parasite load in draining lymph node” value in data set [7] (setting [8]) is “decreased parasite load”. In addition, the “parasite load in infected ear” value in data set [7] (setting [8]) is on record as “decreased parasite load”. In addition, the “times more efficient than glucantime” value in data set [7] (similar effect at a dose three times lower) worked out at 3 times.

(Values after paper PMC9170106, “Pre-clinical evaluation of LASSBio-1491: From in vitro pharmacokinetic study to in vivo leishmanicidal activity” (PLoS ONE, 2022).)
